This note sets out measurements from patent US20180092866A1, “SUBSTITUTED N-([1,1'-BIPHENYL]-3-YL)-[1,1'-BIPHENYL]-3-CARBOXAMIDE ANALOGS AS INHIBITORS FOR BETA-CATENIN/B-CELL LYMPHOMA 9 INTERACTIONS” (University of Utah Research Foundation, priority 2015, published 2018).

Counter-ions that a name gives are not always drawn.

The target in the first test is T1, β-catenin/BCL9 protein-protein interactions (Homo sapiens, UniProt P35222).
T1 construct: C-terminally His6-tagged wild-type or mutant β-catenin (residues 138-686) proteins; made in house; host or cells: E. coli BL21 DE3
T1 sequence (P35222 138-686): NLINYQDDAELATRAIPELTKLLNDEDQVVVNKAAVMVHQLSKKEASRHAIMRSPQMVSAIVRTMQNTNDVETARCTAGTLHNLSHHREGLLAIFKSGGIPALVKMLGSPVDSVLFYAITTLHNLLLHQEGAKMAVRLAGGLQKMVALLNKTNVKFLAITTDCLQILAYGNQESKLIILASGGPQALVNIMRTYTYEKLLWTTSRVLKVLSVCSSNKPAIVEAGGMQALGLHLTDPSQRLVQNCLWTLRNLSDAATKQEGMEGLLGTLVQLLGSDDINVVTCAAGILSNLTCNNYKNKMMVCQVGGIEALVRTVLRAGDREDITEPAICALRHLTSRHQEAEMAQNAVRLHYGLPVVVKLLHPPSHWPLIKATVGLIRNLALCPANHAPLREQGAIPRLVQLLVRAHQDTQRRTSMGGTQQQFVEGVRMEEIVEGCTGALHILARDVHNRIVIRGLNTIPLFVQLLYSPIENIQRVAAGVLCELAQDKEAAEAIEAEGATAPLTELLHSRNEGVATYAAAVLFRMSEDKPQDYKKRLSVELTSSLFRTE
Nature of the test: AlphaScreen competitive inhibition assay, wild-type β-catenin/BCL9. It is filed as binding. The settings on record: AlphaScreen assay, comparison with named compound. The protocol:
The purity of the wild-type and mutant β-catenin proteins was all greater than 95% as determined by the SDS-PAGE gel analysis. Both the wild-type and mutant β-catenin proteins are stable under the testing conditions. Native non-denaturing gel electrophoresis was performed to confirm the homogeneity of the purified proteins. Experiments were performed in white opaque 384-well plates from PerkinElmer, and the samples were read on a Synergy 2 plate reader (Biotek) with a sensitivity setting of 200 using AlphaScreen protocol with excitation at 680 nm and emission at 570 nm. All dilutions were made in 1×assay buffer containing 25 mM HEPES (pH=7.0), 100 mM NaCl, 0.01% Triton X-100, and 0.1% BSA. In the AlphaScreen competitive inhibition assay, 40 nM of C-terminally His6-tagged wild-type or mutant β-catenin (residues 138-686) proteins was incubated with 5 nM of N-terminal biotinylated human BCL9 26-mer (residues 350-375) for 30 min at 4° C., and then different concentrations of the tested inhibitors in the assay buffer were added to make a final volume of 20 μL. The mixture was incubated at 4° C. for 2 h. The donor and acceptor beads were added to a final concentration of 10 μg/mL in 25 μL of assay buffer. The mixture was incubated at 4° C. for 1 h. The IC50 value was determined by nonlinear least-square analysis of GraphPad Prism 5.0. […] The Ki values were derived from the IC50 values by a reported method (Nikolovska-Coleska et al. (2004) Anal. Biochem. […]: 261-273). Experiments were performed in triplicate and carried out in the presence of 1% DMSO.
A general note: Bead proximity is the source of the signal in Alpha formats.
Regarding `Cl.Cl.NCCOc1ccc(NC(=O)c2ccc(OCCN)c(-c3ccc(F)c(F)c3)c2)cc1-c1ccc(F)cc1` [Compound 17, 2-((5-(6-(2-Ammonioethoxy)-3′,4′-difluoro-[1,1′-biphenyl]-3-ylcarboxamido)-4′-fluoro-[1,1′-biphenyl]-2-yl)oxy) ethanaminium chloride], the “relative inhibitory potency for β-catenin/BCL9 PPIs (in words)” value was “more potent than 9 and 13”.
On the same count and under the same terms, next, `NC(=O)c1ccc(CCCO)c(-c2ccc(F)cc2)c1` [Compound 8, 4′-Fluoro-6-(3-hydroxypropyl)-[1,1′-biphenyl]-3-carboxamide]: “less potent than 6”.
Same read-out and setting: the result for `Cl.NCc1ccc(C(N)=O)cc1-c1ccc(F)cc1` [Compound 7, (5-Carbamoyl-4′-fluoro-[1,1′-biphenyl]-2-yl)methanaminium chloride] reads “less potent than 6”.

The test is the same for the next values; noted with them: AlphaScreen assay, relative to compound 17.
As to `Cc1ccc(NC(=O)c2ccc(C)c(-c3ccc(F)c(F)c3)c2)cc1-c1ccc(F)cc1` [Compound 19, 3′,4′-Difluoro-N-(4′-fluoro-6-methyl-[1,1′-biphenyl]-3-yl)-6-methyl-[1,1′-biphenyl]-3-carboxamide], the “fold less potent than 17” value amounted to 65 fold.

Still in this test, the particulars now being: wild-type β-catenin (residues 138-686)/biotinylated BCL9 26-mer; Ki derived from IC50; mean ± SD.
On to `Cl.Cl.NCCOc1ccc(NC(=O)c2ccc(OCCN)c(-c3ccc(F)c(F)c3)c2)cc1-c1ccc(F)cc1` [Compound 17, 2-((5-(6-(2-Ammonioethoxy)-3′,4′-difluoro-[1,1′-biphenyl]-3-ylcarboxamido)-4′-fluoro-[1,1′-biphenyl]-2-yl)oxy) ethanaminium chloride], for which the inhibition constant (Ki) – broadly, a dissociation constant, usually derived from enzyme kinetics or from competition with a known ligand – came to 6.12 ± 1.53 µM.
With `O=C(Nc1cnc(O[C@H]2CCNC2)c(-c2ccc(F)cc2)c1)c1cnc(O[C@H]2CCNC2)c(-c2ccc(F)c(F)c2)c1` [Compound 84c, 5-(3,4-difluorophenyl)-N-(5-(4-fluorophenyl)-6-((S)-pyrrolidin-3-yloxy)pyridin-3-yl)-6-((S)-pyrrolidin-3-yloxy)nicotinamide dihydrochloride], the Ki amounted to 68.6 ± 14.9 µM.
Regarding `O=C(Nc1ccc(O[C@H]2CCNC2)c(-c2ccc(F)cc2)c1)c1ccc(O[C@H]2CCNC2)c(-c2ccc(F)nc2)c1` [Compound 95, N-(4′-fluoro-6-((S)-pyrrolidin-3-yloxy)-[1,1′-biphenyl]-3-yl)-3-(6-fluoropyridin-3-yl)-4-((S)-pyrrolidin-3-yloxy)benzamide dihydrochloride], the Ki is 244 ± 13.3 µM.
Take `CC(=O)Nc1cccc(-c2cc(NC(=O)c3ccc(O[C@H]4CCNC4)c(-c4ccc(F)c(F)c4)c3)ccc2O[C@H]2CCNC2)c1` [Compound 103]: the inhibition constant (Ki) turned out to be 96.4 ± 9.78 µM.
As for `COC(=O)c1ccc(OCCNC(=O)OC(C)(C)C)c(Br)c1` [Compound 30, Methyl-3-bromo-4-(2-((tert-butoxycarbonyl)amino)ethoxy) benzoate], the Ki was determined as 156 ± 3.96 µM.
On the same count and under the same terms, next, `O=C(O)c1ccc(-c2cc(NC(=O)c3ccc(O[C@H]4CCNC4)c(-c4ccc(F)c(F)c4)c3)ccc2O[C@H]2CCNC2)cc1` [Compound 99]: 156 ± 3.96 µM.
Still for that read-out and setting: next, `Cc1cc(C(=O)Nc2ccc(O[C@H]3CCNC3)c(-c3ccc(F)cc3)c2)ccc1O[C@H]1CCNC1` [Compound 24, (S)-3-((4′-fluoro-5-(3-methyl-4-((S)-pyrrolidin-1-ium-3-yloxy)benzamido)-[1,1′-biphenyl]-2-yl)oxy) pyrrolidin-1-ium chloride]: 201 ± 9.29 µM.
Regarding `NCCOc1ccc(C(=O)Nc2cccc(-c3ccc(F)c(F)c3)c2)cc1-c1ccc(F)cc1` [Compound 10, 2-((5-((3′,4′-Difluoro-[1,1′-biphenyl]-3-yl)carbamoyl)-4′-fluoro-[1,1′-biphenyl]-2-yl)oxy) ethanaminium chloride], the Ki amounted to 27.7 ± 3.67 µM.
The same measure, in the same setting: next, `NC(=O)c1ccc(-c2cc(NC(=O)c3ccc(O[C@H]4CCNC4)c(-c4ccc(F)c(F)c4)c3)ccc2O[C@H]2CCNC2)cc1` [Compound 91h, N-(4′-carbamoyl-6-((S)-pyrrolidin-3-yloxy)-[1,1′-biphenyl]-3-yl)-3′,4′-difluoro-6-((S)-pyrrolidin-3-yloxy)-[1,1′-biphenyl]-3-carboxamide dihydrochloride]: 51.7 ± 6.15 µM.
On the same count and under the same terms, next, `Cc1ccc(-c2cc(NC(=O)c3ccc(O[C@H]4CCNC4)c(-c4ccc(F)c(F)c4)c3)ccc2O[C@H]2CCNC2)cc1` [Compound 91c, 3′,4′-Difluoro-N-(4′-methyl-6-((S)-pyrrolidin-3-yloxy)-[1,1′-biphenyl]-3-yl)-6-((S)-pyrrolidin-3-yloxy)-[1,1′-biphenyl]-3-carboxamide dihydrochloride]: 41.4 ± 9.16 µM.
Same read-out and setting: the result for `NS(=O)(=O)c1ccc(-c2cc(NC(=O)c3ccc(O[C@H]4CCNC4)c(-c4ccc(F)c(F)c4)c3)ccc2O[C@H]2CCNC2)cc1` [Compound 91i, 3′,4′-Difluoro-6-((S)-pyrrolidin-3-yloxy)-N-(6-((S)-pyrrolidin-3-yloxy)-4′-sulfamoyl-[1,1′-biphenyl]-3-yl)-[1,1′-biphenyl]-3-carboxamide dihydrochloride] reads 11.1 ± 1.16 µM.
In the case of `O=C(Nc1ccc(O[C@H]2CCNC2)c(-c2ccc(F)cc2)c1)c1ccc(O[C@@H]2CCNC2)c(-c2ccc(F)c(F)c2)c1` [Compound 27, (R)-3-((3′,4′-difluoro-5-((4′-fluoro-6-(((S)-pyrrolidin-1-ium-3-yl)oxy)-[1,1′-biphenyl]-3-yl)carbamoyl)-[1,1′-biphenyl]-2-yl)oxy) pyrrolidin-1-ium chloride], the Ki was 5.6 ± 0.514 µM.
With `O=C(Nc1ccc(O[C@@H]2CCNC2)c(-c2ccc(F)cc2)c1)c1ccc(O[C@H]2CCNC2)c(-c2ccc(F)c(F)c2)c1` [Compound 28, (S)-3-((3′,4′-difluoro-5-((4′-fluoro-6-(((R)-pyrrolidin-1-ium-3-yl)oxy)-[1,1′-biphenyl]-3-yl)carbamoyl)-[1,1′-biphenyl]-2-yl)oxy) pyrrolidin-1-ium chloride], the Ki stood at 3.41 ± 0.354 µM.
For the compound `NCCOc1ccc(C(=O)Nc2cccc(-c3ccc(F)cc3)c2)cc1-c1ccc(Cl)c(F)c1` [Compound 14, 2-((4′-Chloro-3′-fluoro-5-((4′-fluoro-[1,1′-biphenyl]-3-yl)carbamoyl)-[1,1′-biphenyl]-2-yl)oxy) ethanaminium chloride], the Ki came out at 74 ± 3.48 µM.
On the same count and under the same terms, the result for `Cc1cc(F)ccc1-c1cc(NC(=O)c2ccc(O[C@H]3CCNC3)c(-c3ccc(F)c(F)c3)c2)ccc1O[C@H]1CCNC1` [Compound 91j, 3′,4′-Difluoro-N-(4′-fluoro-2′-methyl-6-((S)-pyrrolidin-3-yloxy)-[1,1′-biphenyl]-3-yl)-6-((S)-pyrrolidin-3-yloxy)-[1,1′-biphenyl]-3-carboxamide dihydrochloride] reads 27.3 ± 4.83 µM; that for `O=C(Nc1ccc(O[C@H]2CCNC2)c(-c2ccc(-c3nn[nH]n3)cc2)c1)c1ccc(O[C@H]2CCNC2)c(-c2ccc(F)c(F)c2)c1` [Compound 91l, 3′,4′-Difluoro-6-((S)-pyrrolidin-3-yloxy)-N-(6-((S)-pyrrolidin-3-yloxy)-4′-(2h-tetrazol-5-yl)-[1,1′-biphenyl]-3-yl)-[1,1′-biphenyl]-3-carboxamide dihydrochloride], 19.9 ± 4.87 µM; that for `COC(=O)c1ccc(OCCNC(=O)OC(C)(C)C)c(-c2ccc(F)cc2)c1` [Compound 31, Methyl-6-(2-((tert-butoxycarbonyl)amino)ethoxy)-4′-fluoro-[1,1′-biphenyl]-3-carboxylate], 180 ± 4.84 µM.
Still for that read-out and setting: next, `O=C(Nc1ccc(O[C@H]2CCNC2)c(-c2ccc(F)cc2)c1)c1ccc(O[C@H]2CCNC2)c(-c2ccc3ccccc3c2)c1` [Compound 25, (S)-3-((4′-fluoro-5-(3-(naphthalen-2-yl)-4-((S)-pyrrolidin-1-ium-3-yloxy)benzamido)-[1,1′-biphenyl]-2-yl)oxy) pyrrolidin-1-ium chloride]: 8.45 ± 2.65 µM.
